Test results: patent publication US20240315966A1, “COMPOSITION CONTAINING LOXOPROFEN SODIUM” (GUANGZHOU OCUSUN OPHTHALMIC BIOTECHNOLOGY CO., LTD., priority 2021, published 2024)
Where two headings read alike, the source gives them in different places.

Assay: Phase I clinical trial, pharmacokinetics of loxoprofen sodium eye drops
Details: human, in vivo, topical or ocular; for AUC(0-t): read-out: Average AUC0-t
Protocol: loxoprofen sodium eye drops: eye drops of different concentrations were prepared according to Example 1; and
2. Research methods: single-center, randomized, double-blind, single and multiple administration dosage escalation designs were used to explore the safety, tolerability and pharmacokinetic characteristics of loxoprofen sodium eye drops. Single administration includes dosages of 0.025 mg (a concentration of 0.5 mg/ml), 0.05 mg (a concentration of 1 mg/ml), 0.1 mg (a concentration of 2 mg/ml), and 0.2 mg (a concentration of 4 mg/mL), with an administration method of once a day, one drop each; and multiple administration includes dosages of 0.05 mg, 0.1 mg, and 0.2 mg, with an administration method of four times a day, one drop each.

Cmax (0.05 mg, multiple administration (four times a day)): 2.66 ± 0.6 ng/mL
AUC(0-t) (0.05 mg, multiple administration (four times a day), 0.05 mg): 0.47 ± 0.43 ng·h/mL
Cmax (0.1 mg, multiple administration (four times a day)): 4.22 ± 1.79 ng/mL
AUC(0-t) (0.1 mg, multiple administration (four times a day), 0.1 mg): 2.08 ± 1.56 ng·h/mL
Cmax (0.1 mg, single administration): 3.69 ± 0.88 ng/mL
AUC(0-t) (0.1 mg, single administration, 0.1 mg): 1.71 ± 0.99 ng·h/mL
Cmax (0.2 mg, multiple administration (four times a day)): 9.46 ± 3.73 ng/mL
AUC(0-t) (0.2 mg, multiple administration (four times a day), 0.2 mg): 8.33 ± 4.4 ng·h/mL
Cmax (0.2 mg, single administration): 8.73 ± 5.19 ng/mL
AUC(0-t) (0.2 mg, single administration, 0.2 mg): 6.82 ± 6.3 ng·h/mL
Tmax (multiple administration (four times a day), 0.05 mg): 12 min
Tmax (multiple administration (four times a day), 0.1 mg): 12 min
Tmax (multiple administration (four times a day), 0.2 mg): 12 min
SMILES: CC(C(=O)O)c1ccc(CC2CCCC2=O)cc1 (stereo not shown) [loxoprofen]
